{"source": "paper PMC8458504", "about": "“Targeting the actin nucleation promoting factor WASp provides a therapeutic approach for hematopoietic malignancies” (Nature Communications, 2021)", "target": "T1, YFP-WASp wt (Wiskott–Aldrich Syndrome protein) (Homo sapiens, UniProt P42768)", "T1 construct": "gene WAS; full-length wild type, YFP-tagged, transiently expressed in HEK 293T (endogenous WIP present); diluted whole-cell lysate, not purified", "T1 sequence (P42768 2-502)": "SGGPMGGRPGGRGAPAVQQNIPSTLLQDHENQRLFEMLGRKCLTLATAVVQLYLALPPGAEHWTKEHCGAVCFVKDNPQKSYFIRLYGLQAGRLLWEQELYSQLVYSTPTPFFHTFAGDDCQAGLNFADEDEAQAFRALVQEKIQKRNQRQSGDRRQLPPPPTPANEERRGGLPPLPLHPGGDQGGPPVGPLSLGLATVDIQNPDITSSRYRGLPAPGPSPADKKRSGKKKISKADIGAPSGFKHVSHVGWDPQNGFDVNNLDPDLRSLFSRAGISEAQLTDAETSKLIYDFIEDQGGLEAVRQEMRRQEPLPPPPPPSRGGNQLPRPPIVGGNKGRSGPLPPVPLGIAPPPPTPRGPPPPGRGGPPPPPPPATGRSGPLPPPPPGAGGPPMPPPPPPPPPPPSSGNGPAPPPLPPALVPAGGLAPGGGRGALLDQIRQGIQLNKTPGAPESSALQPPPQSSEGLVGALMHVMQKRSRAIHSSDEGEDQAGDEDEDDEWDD", "experiment": "microscale thermophoresis in diluted HEK […] lysate", "type": "binding"}
{"smiles": "COc1ccc(CN2C(=O)N(CC(C)C)C3(CCN(C4Cc5ccccc5C4)CC3)C2=O)cc1", "note": "[SMC #13, 8-(2,3-dihydro-1H-inden-2-yl)-1-isobutyl-3-(4-methoxybenzyl)-1,3,8-triazaspiro[4.5]decane-2,4-dione]", "values": [{"measurement": "Kd", "result": "30.8 ± 13.6", "unit": "nM"}]}
